PubChem BioAssay (NCI)
Several values for one entry are separate records, joined by “and”; a condition that tells them apart may be missing. Equal entries are not always repeated.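 Five compound concentrations were applied to cells in 96-well plates for 48 hours; endpoints were derived by simple linear interpolation of the resulting dose-response curve. GI50 is the concentration that inhibits growth by half. TGI denotes the concentration required for complete inhibition of growth.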

Legend:
Test in all cases: NCI-60 cell line screen, 48 h
HL-60(TB) leukemia = test system: HL-60(TB) leukemia
SW-620 colon = test system: SW-620 colon
A498 renal = test system: A498 renal
OVCAR-8 ovarian = test system: OVCAR-8 ovarian
SR leukemia = test system: SR leukemia
SNB-19 CNS = test system: SNB-19 CNS
RPMI-8226 leukemia = test system: RPMI-8226 leukemia
HOP-92 NSCLC = test system: HOP-92 NSCLC
SK-MEL-5 melanoma = test system: SK-MEL-5 melanoma
EKVX NSCLC = test system: EKVX NSCLC

SMILES | GI50 (HL-60(TB) leukemia) [µM] | TGI (HL-60(TB) leukemia) | GI50 (SW-620 colon) [µM] | TGI (SW-620 colon) [µM] | GI50 (A498 renal) [µM] | TGI (A498 renal) | GI50 (OVCAR-8 ovarian) [µM] | TGI (OVCAR-8 ovarian) | GI50 (SR leukemia) [µM] | TGI (SR leukemia) | GI50 (SNB-19 CNS) | TGI (SNB-19 CNS) | GI50 (RPMI-8226 leukemia) [µM] | TGI (RPMI-8226 leukemia) | GI50 (HOP-92 NSCLC) | TGI (HOP-92 NSCLC) | GI50 (SK-MEL-5 melanoma) | TGI (SK-MEL-5 melanoma) | GI50 (EKVX NSCLC) | TGI (EKVX NSCLC)
N#Cc1c(O)c2c(c(O)c1C#N)C(=O)c1ccccc1C2=O | 1.44 | 3.64 µM | 2.5 | 7.55 | 1.39 | 16.4 µM | 2.33 | 6.48 µM | 1.82 | 5.35 µM | 2.86 µM | 22.2 µM | 1.42 | 4.67 µM | 2.2 µM | 5.92 µM | 0.282 µM | 1.14 µM | 3.07 µM | 26.1 µM
CCOC(=O)c1cc(-c2ccc([N+](=O)[O-])cc2)n(-c2ccc(C(=O)O)c(O)c2)c1C | 4.94 | 48.4 µM | 4.76 | 16.8 | 10.1 | 21.9 µM | 5.29 | 43.7 µM | 9.3 | > 100 µM | 5.66 µM | 19.1 µM | 0.148 | > 100 µM | 2.09 µM | 13.4 µM | 1.64 µM | 3.43 µM | 5.2 µM | 18 µM
O=C(Cc1ccc(/C=C/C(=O)c2ncc[nH]2)cc1)Nc1ccc(Cl)cc1 | 3.8 | 21.8 µM | 1.43 | > 25 | 5.48 | 13 µM | 3.65 | 16 µM | 0.798 | > 25 µM | 2.32 µM | 6.73 µM | 0.857 | 3.92 µM | 5.74 µM | 20.9 µM | 6.16 µM | 17.4 µM | 5.68 µM | 20.2 µM
COc1cc2c(c(OC)c1OC)-c1ccc(NCc3ccccc3)c(=O)cc1[C@@H](NC(C)=O)CC2 | 0.353 |  | 0.391 | > 100 | 0.248 | 0.771 µM | 0.444 | 65 µM | 0.436 | > 44.3 µM | 0.638 µM | > 100 µM | 0.531 | 16.3 µM | 0.318 µM | 4.1 µM | 0.422 µM | 1.94 µM |  | 
O=C1/C(=C/c2ccccc2)CN(C(=O)Oc2ccc(Cl)cc2)C/C1=C\c1ccccc1 |  | 4.5 µM |  | 2.77 |  | 7.81 µM |  | 3.6 µM |  | 4.33 µM |  | 10.1 µM |  | 0.902 µM |  | 42.3 µM |  | 4.14 µM |  | 26.7 µM
Cc1c(C(=O)/C=C/c2cccc3ccccc23)[n+](=O)c2ccccc2n1[O-] |  | 27.3 µM |  | 22.7 |  | 30.8 µM |  | 24.9 µM |  | 38.2 µM |  | 29.7 µM |  | 41.8 µM |  | 22.5 µM |  |  |  | 27.3 µM
O=C(O)Cc1c[nH]c2ccc(F)cc12 |  | > 100 µM |  | > 100 |  | > 100 µM |  | > 100 µM |  | > 100 µM |  | > 100 µM |  | > 100 µM |  | > 100 µM |  | > 100 µM |  | > 100 µM
O=c1c(Cl)c(Cl)cnn1-c1ccccc1 | 0.774 | 10.7 µM and 2.11 µM | 2 | 5.5 |  | 31.6 µM and 31.2 µM |  | 6.05 µM and 11.5 µM |  | > 19.7 µM and 3.92 µM | 4.93 µM and > 23.2 µM | 13.7 µM and > 41.7 µM |  | > 38.7 µM and 27 µM | 1.98 µM and 7.58 µM | 3.61 µM and 16 µM | 2.42 µM and 7.82 µM | 5.66 µM and 14.2 µM | 5.44 µM and 15.4 µM | 10.5 µM and 33.4 µM
COc1cccc(-c2nn(-c3ccccc3)cc2-c2ccnc(NCCCNS(=O)(=O)c3cccc(F)c3)c2)c1 | 3.52 | 24.7 µM | 5.54 | > 100 | 3.52 | > 100 µM | 3.93 | > 100 µM | 2.13 | 7.22 µM |  |  | 2.91 | 9.92 µM | 2.42 µM | 9.63 µM | 1.86 µM | 3.77 µM | 2.79 µM | > 100 µM
COc1cc2c(NCCCCCCO[N+](=O)[O-])ncnc2c(OC)c1OC |  | 54.8 µM |  | 70.5 |  | 52 µM |  | 64.4 µM |  | 45.1 µM |  | > 100 µM |  | 32.2 µM |  | 47.1 µM |  | 25 µM |  | 68.3 µM
C#CC(C)(C)Oc1cc(O)c2c(=O)c3ccccc3n(C)c2c1 |  | > 100 µM |  |  |  | > 100 µM |  | > 100 µM |  | 35.7 µM |  | > 100 µM |  |  |  | > 100 µM |  | > 100 µM |  | > 100 µM
COc1cc2c(c(O)c1C)C(=O)C(Cl)=CC2=O |  | 5.57 µM |  | 8.29 |  | 33.9 µM |  | 45 µM |  | 4.37 µM |  | > 86.4 µM |  | 68.3 µM |  | 11.5 µM |  | 21.7 µM |  | 23.3 µM
CCN1CCN(c2nc(NCCNc3ccnc4cc(Cl)ccc34)c3ccccc3n2)CC1 | 2.01 | 4.01 µM | 0.707 | 5.14 | 1.68 | 3.35 µM | 1.89 | 5.96 µM | 0.287 | 0.898 µM | 1.99 µM | 14 µM | 1.54 | 4.41 µM | 1.14 µM | 2.49 µM | 1.82 µM | 3.21 µM | 2.62 µM | 11.6 µM
CC(=O)/C=C/c1cccc(N=S)c1 |  | 34.2 µM |  | 6.68 |  | 78.7 µM |  | 31 µM |  | > 100 µM |  | > 87.5 µM |  | > 27.8 µM |  | > 100 µM |  | 63.4 µM |  | > 63 µM
Cc1cc(C)nc(NS(=O)(=O)c2ccc(NC(=O)c3cccc4c(=O)c5ccccc5[nH]c34)cc2)n1 |  | 47.7 µM |  | 55.5 |  | 34.9 µM |  | 41.1 µM |  | > 100 µM |  | 80.7 µM |  | 83 µM |  | 44 µM |  | 24 µM |  | 86.3 µM
OC(c1cccc(C(F)(F)F)c1)c1cnccc1NC1CCCCCC1 (stereo not drawn) | 2.13 | 4.47 µM | 1.72 | 3.37 | 3.68 | 15.9 µM | 2.1 | 4.59 µM | 2.2 | 6.51 µM | 1.83 µM | 4.08 µM | 1.67 | 4.11 µM | 1.32 µM | 3.88 µM | 1.61 µM | 3.04 µM | 1.98 µM | 4.68 µM
